These results are taken from PMC9036655 (RSC Advances, 2021).

Assay [1] deals with M. tuberculosis H37Rv. Briefly: Antimycobacterial activity against M. tuberculosis H37Rv. Type of assay: cell-based, Mycobacterium tuberculosis. As to conditions: Mycobacterium tuberculosis, H37RV, read-out: % inhibition 20 μg mL^−1, M. tuberculosis H37Rv; 20 μg mL^−1.
Assay [2] concerns Vero cells. Briefly: Cytotoxicity, MTT assay, Vero cells. Type of assay: cell-based, African green monkey. As to conditions: IC50(Vero)/MIC M. tb.
In assay [3] the test system is A549 cells. Briefly: Cytotoxicity, MTT assay, A549 cells. It counts as cell-based, Human. As to conditions: for IC50: Homo sapiens, A549, 72 h, read-out: IC50 A549; for Selectivity index A549: IC50(A549)/MIC M. tb.
The subject of assay [4] is Escherichia coli Esbls^−16-23. Nature of the assay: Antibacterial spectrum test, agar double dilution MIC. It counts as cell-based.
For assay [5], the system named is Escherichia coli ATCC25922. Described as above. It counts as cell-based.
Assay [6] relates to Klebsiella pneumoniae Esbls^−17-11. Described as above. Type of assay: cell-based.
Assay [7] concerns Pseudomonas aeruginosa 17-2. Described as above. It counts as cell-based. Particulars: 172.
Assay [8] has as its system Escherichia coli Esbls^−16-24. The description is as above. It counts as cell-based.
For assay [9], the system named is Klebsiella pneumoniae Esbls^−17-12. The assay is described as above. Type of assay: cell-based.

Molecules are shown by their SMILES. Converted amounts (≈) assume the structure as drawn. Bounds are passed on as bounds.

One may read the inhibition as the relative decrease from the control value, in per cent. For orientation: IC50 means the concentration at which inhibition is half-maximal. For the molecule `Cc1[nH]c(=O)c(CNC(=O)c2ccc([N+](=O)[O-])o2)c2c1CCCC2` [6b29, N-((1-Methyl-3-oxo-2,3,5,6,7,8-hexahydroisoquinolin-4-yl)methyl)-5-nitrofuran-2-carboxamide], in assay [1], the inhibition at 20 µg/mL was found to be 100%. For the same molecule, in [2], the “Selectivity index Vero” value was greater than 17. Moreover, in [3], the half-inhibitory concentration (IC50) is greater than 100 µg/mL and the “Selectivity index A549” value was greater than 35.

With `Cc1[nH]c(=O)c(CNC(=O)c2ccc(C(F)(F)F)o2)c2c1CCCC2` [6b33, N-((1-Methyl-3-oxo-2,3,5,6,7,8-hexahydroisoquinolin-4-yl)methyl)-5-(trifluoromethyl)furan-2-carboxamide], the inhibition at 20 µg/mL in assay [1] was found to be 98.3%. The “Selectivity index Vero” value in [2] is recorded as greater than 25. Also, in assay [3], the IC50 is greater than 100 µg/mL and the “Selectivity index A549” value was greater than 50.

For orientation: MIC means the lowest concentration found to suppress growth. For `C[C@H]1COc2c(N3CCN(C)CC3)c(F)cc3c(=O)c(C(=O)O)cn1c23` [Levofloxacin tablets, Levofloxacin], the MIC is 16 µg/mL (≈ 44.3 µM) in [4]; less than 0.008 µg/mL in [5]; 0.03 µg/mL (≈ 0.083 µM) in assay [6]; 16 µg/mL (≈ 44.3 µM) in assay [7]; less than 0.008 µg/mL in [8]; less than 0.008 µg/mL in assay [9].
